{"source": "patent US20170290774A1", "about": "“NEUROKININ-1 RECEPTOR ANTAGONIST COMPOSITION FOR TREATMENT OF DISEASES AND CONDITIONS OF THE RESPIRATORY TRACT” (PLUS VITECH, S.L., priority 2014, published 2017)", "tested_on": "Fibrosis", "experiment": "Area occupied by fibrosis in hematoxylin/eosin sections of sodium hypochlorite aerosol-treated rabbits", "type": "in vivo, New Zealand albino rabbits", "source_text": "It is known that the factors TGF-α, TGF-β 1, TGF-β 2, TGF-β 3, SPARC, MMP-3; MMP-7, MMP-9, MMP-11, MMP-13 and MMP-14, TGF-β, NF-kB, EGF, MMP-9, VEGF and TNF-α which are produced by lung cells (pneumocytes, fibroblasts and vascular endothelial cells) and inflammatory cells (macrophages, lymphocytes and polymorphonuclear leukocytes) are involved in the pathophysiology and development of said respiratory tract diseases. […] Herein, 27 New Zealand albino rabbits (New Zealand White Rabbit) with an initial average weight about 3 kg were used in this example. All subjects were administered an aerosol of a solution consisting of a mixture of water and sodium hypochlorite (35 g sodium hypochlorite per liter of water) at a rate of 5 mL of said solution by inhalation three times a day for 7 days (days 1 to 7 of experimentation). Subsequently, from days 3 to 7, a group of 3 rabbits (Group 1) was administered an oral dose of 10 mg/kg body weight per day, another group of 3 rabbits (Group 2) was administered an oral dose of 40 mg/kg body weight per day, a third group (Group 3) was administered an oral dose of 80 mg/kg body weight per day and a fourth group (Group 4) was administered an oral dose of 100 mg/kg body weight per day. […] This mixture was administered as an aerosol by inhalation, also from days 3 to 7, to a group of 3 rabbits (group 5) at a dose of 0.05 mg/kg body weight per day, to another group of three rabbits (Group 6) at a dose of 0.1 mg/kg body weight per day, to another group of three rabbits (Group 7) at a dose of 0.2 mg/kg body weight per day and to another group of three rabbits (Group 8) at a dose of 0.4 mg/kg body weight per day. A placebo consisting only of olive oil was administered from days 3 to 7 to a control group of 3 rabbits (placebo group). In parallel, 3 rabbits were kept under identical conditions but were not administered any treatment nor the aforementioned sodium hypochlorite solution (control group). […] On day 7 of the experiment all animals were euthanized and necropsied. […] Samples were taken at the peripheral level of the lung parenchyma, just below the pleural surface. Tissue samples were also taken from the nasal cavity, pharynx, larynx and bronchi. Immunohistochemistry studies were performed for all samples to evaluate the levels of the markers TGF-α, TGF-β 1, TGF-β 2, TGF-β 3 SPARC, MMP-3; MMP-7, MMP-9, MMP-11, MMP-14, TGF-β, TNF-α and VEGF. The samples were then allowed to cool to room temperature over 10 minutes. Endogenous peroxidase activity was blocked by treatment with 3% hydrogen peroxide over 30 min at room temperature. […] In order to verify the expression of NK1 receptors, the cell samples were incubated in the presence of anti-NK1 antibodies ([…], Sigma-Aldrich) diluted 1:1000 at 4° C. overnight. After this time they were washed in 0.05M Tris buffer at room temperature. Subsequently, Envision System-HRP (Dako) reagents were added for 30 min at room temperature. Once this time had expired, the samples were again washed with 0.05 M Tris buffer, and immunoreactivity was visualized by light microscopy with a chromogenic solution with 3,3'-diaminobenzidine (DAB+; Dako, USA). In order to differentiate the cell nuclei, these were lightly stained with haematoxylin. Samples that were not incubated with the primary antibody, but wherein this was replaced by a non-immune serum were used as negative controls. In order to evaluate markers in these immunohistochemical assays, specific primary antibodies were used against them at a concentration 1:1000, as detailed in Table 12. Furthermore, for each of the sampled sections were placed on slides and stained with haematoxylin-eosin before subsequently being deparaffinised by immersion in xylene and then rehydrated through immersion in a series of solutions containing decreasing concentrations of ethanol and, finally, immersing them in water, eosin (20 seconds) and hematoxylin (40 seconds). All experiments were performed in sextuplicate. […]", "data": [{"smiles": "C[C@@H](OC1OCCN(Cc2nc(=O)[nH][nH]2)C1c1ccc(F)cc1)c1cc(C(F)(F)F)cc(C(F)(F)F)c1", "note": "(stereo in doubt) [Aprepitant, 5-([(2R,3S)-2-((R)-1-[3,5-bis(trifluoromethyl)phenyl]ethoxy)-3-(4-fluorophenyl)morpholino]methyl)-1H-1,2,4-triazol-3(2H)-one]", "values": [{"measurement": "Percent increase in Fibrosis with respect to the control group", "setting": "bronchial tissue, Group 1, oral 10 mg/kg per day", "result": "2,500.10%"}, {"measurement": "Percent increase in Fibrosis with respect to the control group", "setting": "bronchial tissue, Group 2, oral 40 mg/kg per day", "result": "2,000.00%"}, {"measurement": "Percent increase in Fibrosis with respect to the control group", "setting": "bronchial tissue, Group 3, oral 80 mg/kg per day", "result": "1,500.00%"}, {"measurement": "Percent increase in Fibrosis with respect to the control group", "setting": "bronchial tissue, Group 4, oral 100 mg/kg per day", "result": "1,000.00%"}, {"measurement": "% Med G5/C: percent increase in Fibrosis with respect to the control group", "setting": "bronchial tissue, Group 5", "result": "2,000.00%"}, {"measurement": "% Med G6/C: percent increase in Fibrosis with respect to the control group", "setting": "bronchial tissue, Group 6", "result": "1,000.00%"}, {"measurement": "% Med G7/C: percent increase in Fibrosis with respect to the control group", "setting": "bronchial tissue, Group 7", "result": 500.00, "unit": "%"}, {"measurement": "% Med G8/C: percent increase in Fibrosis with respect to the control group", "setting": "bronchial tissue, Group 8", "result": 100.50, "unit": "%"}, {"measurement": "Percent increase in Fibrosis with respect to the control group", "setting": "laryngeal tissue, Group 1, oral 10 mg/kg per day", "result": 250.50, "unit": "%"}, {"measurement": "Percent increase in Fibrosis with respect to the control group", "setting": "laryngeal tissue, Group 2, oral 40 mg/kg per day", "result": 225.70, "unit": "%"}, {"measurement": "Percent increase in Fibrosis with respect to the control group", "setting": "laryngeal tissue, Group 3, oral 80 mg/kg per day", "result": 200.57, "unit": "%"}, {"measurement": "Percent increase in Fibrosis with respect to the control group", "setting": "laryngeal tissue, Group 4, oral 100 mg/kg per day", "result": 150.70, "unit": "%"}, {"measurement": "Percent increase in Fibrosis with respect to the control group", "setting": "laryngeal tissue, Group 5, inhalation 0.05 mg/kg per day", "result": 375.50, "unit": "%"}, {"measurement": "Percent increase in Fibrosis with respect to the control group", "setting": "laryngeal tissue, Group 6, inhalation 0.1 mg/kg per day", "result": 275.45, "unit": "%"}, {"measurement": "Percent increase in Fibrosis with respect to the control group", "setting": "laryngeal tissue, Group 7, inhalation 0.2 mg/kg per day", "result": 200.60, "unit": "%"}, {"measurement": "Percent increase in Fibrosis with respect to the control group", "setting": "laryngeal tissue, Group 8, inhalation 0.4 mg/kg per day", "result": 125.40, "unit": "%"}, {"measurement": "Percent increase in Fibrosis with respect to the control group", "setting": "lung tissue, Group 1, oral 10 mg/kg per day", "result": "1,272.22%"}, {"measurement": "Percent increase in Fibrosis with respect to the control group", "setting": "lung tissue, Group 2, oral 40 mg/kg per day", "result": 683.33, "unit": "%"}, {"measurement": "Percent increase in Fibrosis with respect to the control group", "setting": "lung tissue, Group 3, oral 80 mg/kg per day", "result": 611.11, "unit": "%"}, {"measurement": "Percent increase in Fibrosis with respect to the control group", "setting": "lung tissue, Group 4, oral 100 mg/kg per day", "result": 516.67, "unit": "%"}, {"measurement": "Percent increase in Fibrosis with respect to the control group", "setting": "lung tissue, Group 5, inhalation 0.05 mg/kg per day", "result": "1,127.78%"}, {"measurement": "Percent increase in Fibrosis with respect to the control group", "setting": "lung tissue, Group 6, inhalation 0.1 mg/kg per day", "result": 433.33, "unit": "%"}, {"measurement": "Percent increase in Fibrosis with respect to the control group", "setting": "lung tissue, Group 7, inhalation 0.2 mg/kg per day", "result": 233.33, "unit": "%"}, {"measurement": "Percent increase in Fibrosis with respect to the control group", "setting": "lung tissue, Group 8, inhalation 0.4 mg/kg per day", "result": 161.11, "unit": "%"}, {"measurement": "Percent increase in Fibrosis with respect to the control group", "setting": "nasal cavity tissue, Group 1, oral 10 mg/kg per day", "result": 513.89, "unit": "%"}, {"measurement": "Percent increase in Fibrosis with respect to the control group", "setting": "nasal cavity tissue, Group 2, oral 40 mg/kg per day", "result": 375.00, "unit": "%"}, {"measurement": "Percent increase in Fibrosis with respect to the control group", "setting": "nasal cavity tissue, Group 3, oral 80 mg/kg per day", "result": 300.00, "unit": "%"}, {"measurement": "Percent increase in Fibrosis with respect to the control group", "setting": "nasal cavity tissue, Group 4, oral 100 mg/kg per day", "result": 300.00, "unit": "%"}, {"measurement": "Percent increase in Fibrosis with respect to the control group", "setting": "nasal cavity tissue, Group 5, inhalation 0.05 mg/kg per day", "result": 700.00, "unit": "%"}, {"measurement": "Percent increase in Fibrosis with respect to the control group", "setting": "nasal cavity tissue, Group 6, inhalation 0.1 mg/kg per day", "result": 319.44, "unit": "%"}, {"measurement": "Percent increase in Fibrosis with respect to the control group", "setting": "nasal cavity tissue, Group 7, inhalation 0.2 mg/kg per day", "result": 163.89, "unit": "%"}, {"measurement": "Percent increase in Fibrosis with respect to the control group", "setting": "nasal cavity tissue, Group 8, inhalation 0.4 mg/kg per day", "result": 147.22, "unit": "%"}, {"measurement": "Percent increase in Fibrosis with respect to the control group", "setting": "pharyngeal tissue, Group 1, oral 10 mg/kg per day", "result": 489.54, "unit": "%"}, {"measurement": "Percent increase in Fibrosis with respect to the control group", "setting": "pharyngeal tissue, Group 2, oral 40 mg/kg per day", "result": 457.45, "unit": "%"}, {"measurement": "Percent increase in Fibrosis with respect to the control group", "setting": "pharyngeal tissue, Group 3, oral 80 mg/kg per day", "result": 380.00, "unit": "%"}, {"measurement": "Percent increase in Fibrosis with respect to the control group", "setting": "pharyngeal tissue, Group 4, oral 100 mg/kg per day", "result": 275.00, "unit": "%"}, {"measurement": "Percent increase in Fibrosis with respect to the control group", "setting": "pharyngeal tissue, Group 5, inhalation 0.05 mg/kg per day", "result": 480.30, "unit": "%"}, {"measurement": "Percent increase in Fibrosis with respect to the control group", "setting": "pharyngeal tissue, Group 6, inhalation 0.1 mg/kg per day", "result": 258.34, "unit": "%"}, {"measurement": "Percent increase in Fibrosis with respect to the control group", "setting": "pharyngeal tissue, Group 7, inhalation 0.2 mg/kg per day", "result": 152.23, "unit": "%"}, {"measurement": "Percent increase in Fibrosis with respect to the control group", "setting": "pharyngeal tissue, Group 8, inhalation 0.4 mg/kg per day", "result": 128.32, "unit": "%"}]}]}
